In US20240148674A1, “PHARMACEUTICALLY ACCEPTABLE SALTS OF MESDOPETAM AND USES THEREOF” (priority 2020, published 2024):
Counter-ions that a name gives are not always drawn. Like-named read-outs stand apart in the source and are kept apart here.

Experiments:
[1] = Protocol: The temperature was 25° C. using step intervals of 10% between 0% and 95% RH in two consecutive cycles.
[2] = test system: adverse involuntary movements (AIMs); conditions: J. Pharmacol. Exp. Ther. 374: 113-125, July 2020; cited from earlier work
[3] = Hygroscopicity test, weighed samples kept at varied humidity at 30° C. for one week; type: physicochemical; conditions: for Weight difference (%): 30° C., one week; for Hygroscopicity, in words: any tested relative humidity
Protocol: Hygroscopicity test of the L-tartaric salt of [2-(3-fluoro-5-methanesulfonylphenoxy)-ethyl] (propyl)amine was performed by keeping exact weight samples of the salt at varied humidity at 30° C. After one week, the samples were weighed again and based on the original weight the percentage weight difference was calculated.

[4] = test system: Parkinson's patients with L-DOPA induced dyskinesia (LIDs); experiment: Human clinical study, 24-hour patient home diaries (good ON time); type: in vivo
From the text: Home diaries have gained wide acceptance as endpoints for clinical development of therapeutics aiming to reduce treatment-related motor complications. Motor fluctuations are associated with compromise in activities of daily living and health-related quality of life. In clinical trials performed by Integrative Research Laboratories Sweden AB patients record their 24-hours motor function in 30-minute intervals, beginning at midnight. For each 30-minute interval the patient rates the state he or she has been in for the past 30 minutes; OFF, ON without troublesome dyskinesia or ON with troublesome dyskinesia. The patient also denoted the time when he or she has been asleep.
In general, an “OFF” time reduction or “good ON-time” increase of 1 hour may be considered clinically significant and has been used as an assumption in power calculations in clinical trials. Therefore, it can be assumed that shift towards more “good ON-time” of a minimum of 1-hour daily represents a clinically meaningful effect, considering the total time spent in the daily ON state (ON with and without troublesome dyskinesia) is not negatively affected by the treatment.
A valid diary is defined as not having more than 2 hours of invalid data entries (4 invalid entries) over a given 24-hour period. An invalid diary entry is defined as more than one entry recorded in each half-hour interval, an unreadable entry, or the absence of an entry in each half-hour interval. The average diary information from 3 valid diaries (if available) for each visit will be used to calculate diary-based efficacy endpoints. If there are only 2 valid diaries for a visit, then the average information from the 2 valid diaries will be used. If only one diary is valid, information from the single valid diary will be used. If no valid diaries were available for a patient visit, then the diary information was considered missing.
At run-in and following treatment patients were asked to complete home diaries describing their motor status in 30-minute intervals for 24 hours. […]

[5] = test system: unilateral 6-OHDA-lesioned rats; experiment: Rodent unilateral 6-OHDA lesion model of L-DOPA sensitization, rotation test by ROTORAT; type: in vivo, Sprague Dawley rats; conditions: for Contralateral turns, test compound given alone: without L-DOPA, 0-2.5 h
Protocol: The unilateral 6-OHDA lesion model is an established animal model of Parkinson's disease (see e.g. Exp. Neurol. 194: 66-75 (2005)). The neurotoxin 6-OH-DA is injected in the medial forebrain bundle (MFB), resulting in depletion of dopamine e.g. in the striatum. Upon repeated administration of L-DOPA, the animals with such a lesion display sensitization to L-DOPA, captured by rotational behaviour measured as associated with the development of LIDs. The effects of IRL790 (as a HCl-salt) on fully established AIMs have been published previously (J. Pharmacol. Exp. Ther. 374: 113-125 (2020)). Thus, in this article the administration of IRL790 was […]. […] The co-administration of said test compound with the L-DOPA was not preceded by treatment with L-DOPA. The clinically used antidyskinetic compound amantadine (as a HCl-salt) together with L-DOPA was used for comparison.
For the evaluation of sensitization to L-DOPA the rodent unilateral 6-OH-DA-lesion model was used. Adult 150˜200 g female Sprague Dawley rats (Charles River) were housed in temperature- and humidity-controlled rooms (20° C., 53% humidity) with a 12 h dark/light cycle. The rats had access to standard food pellets and water ad libitum. The experiments were approved by the local ethical committee at Karolinska Institute (Stockholm North Ethical Committee, N1525/2017) and conducted in accordance with the European Communities Council Directive of 24 Nov. 1986 (86/609/EEC).
Experimental procedures including unilateral 6-OH-DA-lesions and behavioral assessments were carried as follows. Rats were anesthetized using a mixture of ketamine (100 mg/kg, i.p.; Parke-Davis, Boxmeer, The Netherlands) and xylazine (10 mg/kg, i.p.; Bayer, Kiel, Germany), pretreated with a mixture of desipramine (25 mg/kg, i.p.; Sigma-Aldrich) and pargyline (5 mg/kg, i.p.; Sigma-Aldrich) 30 minutes before lesioning to prevent uptake of 6-OHDA into noradrenergic neurons, and to prevent extracellular metabolism of 6-OHDA, respectively. Rats were placed in a stereotaxic frame (David Kopf Instruments, KOPF®, USA) and injected with temgesic (0.1 mg/kg, s.c., Apoteket, Sweden) before surgery; 2 μl 6-OHDA (5 μg/μl in saline containing 0.02% w/v ascorbic acid, Sigma-Aldrich) was injected into the right MFB, stereotaxic coordinates AP: −2.5 mm, ML: −2.0 mm, DV: −8.5 mm vs. bregma and dural surface (The Rat Brain in Stereotaxic Coordinates 6th Edition, George Paxinos and Charles Watson, 2007) in order to selectively lesion dopaminergic cells in the right brain hemisphere. Post-operative analgesia (Temgesic, s.c.) was administered twice within 48 hours after surgery. Two weeks following surgery, rats were treated with apomorphine (1 mg/kg i.p.; Sigma-Aldrich) to verify successful lesioning. […]

[6] = test system: immediate early response genes (IEGs) cfos and arc; experiment: Striatal gene expression analysis by qPCR in 6-OHDA-lesioned rats; type: in vivo
Protocol: Data is expressed as relative gene expression and was statistically evaluated by two-way ANOVA (analysis of variance).
Data is expressed as relative gene expression and was statistically evaluated by two-way ANOVA (analysis of variance). * denotes p<0.05, ** denotes p<0.01, and *** denotes p<0.001.
Whenever L-DOPA was used in this study, it was administered together with benzerazid HCl-salt 7.5 mg/kg i.p, which is a standard procedure when L-DOPA is administered to rats in the unilateral 6-OHDA lesion model. Chronic treatment of four groups of rats was started with either: (1) L-DOPA (10 mg/kg), (2) [2-(3-fluoro-5-methanesulfonyl-phenoxy)ethyl](propyl)amine tartaric acid salt (3 mg/kg s.c.), (3) L-DOPA (10 mg/kg)+[2-(3-fluoro-5-methanesulfonyl-phenoxy)ethyl](propyl)amine tartaric acid salt (3 mg/kg s.c.), or (4) the corresponding vehicle (saline, i.p.) given once daily for 2 weeks. Additionally, two groups of rats were treated with either amantadine HCl salt (40 mg/kg ip), or L-DOPA (10 mg/kg)+amantadine HCl salt (40 mg/kg i.p.), once daily for 14 days. Behavioural assessments were performed on Day 1, Day 7, and Day 14 of chronic treatment. Thus, on Days 1, 7 and 14 contralateral rotations (i.e. rotations in the opposite direction to the side of the 6-OH-DA-lesion) were measured. Contralateral rotations were measured by Rotorat over 2.5 hours after the administration of test compound. […]

[7] = as disclosed in PCT/EP2020/064046; cited from earlier work
[8] = once daily 2 weeks, Example 7 3 mg/kg s.c., amantadine HCl salt 40 mg/kg i.p., Day 1, 7, 14

## CCCNCCOc1cc(F)cc(S(C)(=O)=O)c1.Cl [Example 1 of WO 2012/143337, hydrochloric acid salt of [2-(3-fluoro-5-methanesulfonylphenoxy)-ethyl](propyl)amine]
[1]; 95% relative humidity and 25° C., DVS
  Weight gained: approximately 3%
[1]; high relative humidities
  Hygroscopicity, in words: hygroscopic at high relative humidities

## CCCNCCOc1cc(F)cc(S(C)(=O)=O)c1 [Example 2, [2-(3-fluoro-5-methanesulfonylphenoxy)ethyl](propyl)amine]
[2]
  Adverse involuntary movements (AIMs): dose-dependently reduced

## CCCNCCOc1cc(F)cc(S(C)(=O)=O)c1 [Example 7, L-tartaric Acid Salt of [2-(3-fluoro-5-methanesulfonylphenoxy)ethyl](propyl)amine]
[3]; Relative Humidity 0 %
  Weight difference (%): −0.26%
[3]; Relative Humidity 6 %
  Weight difference (%): 0.00%
[3]; Relative Humidity 11 %
  Weight difference (%): −0.06%
[3]; Relative Humidity 22 %
  Weight difference (%): 0.12%
[3]; Relative Humidity 33 %
  Weight difference (%): −0.18%
[3]; Relative Humidity 45 %
  Weight difference (%): −0.13%
[3]; Relative Humidity 56 %
  Weight difference (%): −0.15%
[3]; Relative Humidity 73 %
  Weight difference (%): −0.24%
[3]; Relative Humidity 75 %
  Weight difference (%): −0.07%
[3]; Relative Humidity 83 %
  Weight difference (%): 0.06%
[3]; Relative Humidity 97 %
  Weight difference (%): −0.08%
[3]
  Hygroscopicity, in words: very low hygroscopicity
[3]; listed as L-tartaric acid salt
  Hygroscopicity, in words: not hygroscopic at any relative humidities
[4]; 5 mg or less (2.5 mg in some patients) twice-daily (b.i.d.), 9 patients
  Improvement in good ON time (mean values): 2.1 h
[4]; 7.5 mg twice-daily (b.i.d.), 8 patients
  Improvement in good ON time (mean values): 5.6 h
[4]; 10 mg or more (12.5 mg in some patients) twice-daily (b.i.d.), 20 patients
  Improvement in good ON time (mean values): 1.4 h
[5]; co-administered with L-DOPA 10 mg/kg once daily 2 weeks, Example 7 3 mg/kg s.c., amantadine HCl salt 40 mg/kg i.p.
  Contralateral rotational behavior Day 7 or Day 14 vs Day 1, co-treated with L-DOPA (sensitization): no significant difference
[5]; [8]
  Contralateral turns, test compound given alone: no contralateral turns
[6]; combination with L-DOPA, 14 days, Example 7 3 mg/kg
  Effect on L-DOPA-induced increase of striatal cfos and arc expression: attenuated

## N[C@@H](Cc1ccc(O)c(O)c1)C(=O)O [L-DOPA, L-3,4-dihydroxyphenylalanine, reference compound]
[5]; L-DOPA 10 mg/kg with benzerazid 7.5 mg/kg i.p., once daily 2 weeks, Day 1, 7, 14
  Contralateral rotational behavior over time, L-DOPA alone: increasing contralateral rotational behavior
[6]; L-DOPA, 14 days of treatment, relative gene expression
  Striatal expression of IEGs cfos and arc, L-DOPA treatment: significantly increased

## NC12CC3CC(CC(C3)C1)C2 [amantadine HCl salt, amantadine, reference compound]
[5]; [8]
  Contralateral turns, test compound given alone: no contralateral turns

## CCCNCCOc1cc(F)cc(S(C)(=O)=O)c1 [tartaric acid salt of [2-(3-fluoro-5-methanesulfonylphenoxy)-ethyl] (propyl)amine]
[7]
  Hygroscopicity, in words: non-hygroscopic
